Test system: human plasma
Assay: One-bead-one-compound cXXXXXc peptide library screening, biotinylated serum (first mixture) then plasma (target mixture), BCIP staining and (B-A)/A image analysis
Assay type: binding
Details: 4 μg biotinylated serum, then 4 μg biotinylated plasma, 1 hour each at 23° C., sequence by automated peptide sequencing
Source text: General Method. The two mixtures of molecules to be compared were human plasma, referred to as “the target mixture,” and human serum, referred to as “the first mixture.” Both the plasma and serum were biotinylated with EZ-Link™ Sulfo-NHS-LC-Biotin from Pierce. Bead libraries were generated on TenteGel from Rapp Polymere. Amino acids used in bead library synthesis were from Synpep. Bead library screenings were done in disposable polypropylene columns from Perkin Elmer Life Sciences. All buffer reagents were from Sigma unless otherwise noted. PBS, TBS and BCIP buffers were as described in Lam, Kit S. and Michal Lebl, “Synthesis of a one-bead one-compound combinatorial peptide library,” Methods in Molecular Biology, vol. 87, Combinatorial Peptide Library Protocols. Edited by Shmuel Cabilly (Humana Press: 1997), 1-6. Bead staining utilized BCIP from Bio Synth AG which was hydrolyzed with streptavidin-alkaline phosphatase conjugate from Zymed. Bead immobilization was done in SeaPlaque agarose from Bio Wittaker Molecular Applications in Omni tray lids from Nunc/Nalgene. Scanned images were generated on a flatbed transparency scanner from Umax. Computer imaging was accomplished with Adobe Photoshop and compiler software was from Metrowerks. Amino acid sequencing was done on an Applied Biosystems Procise 494 Protein Sequencer.
Library Synthesis. “One-bead-one-compound” cXXXXXc peptide libraries were synthesized essentially as described (Lam and Lebl, Methods in Molecular Biology, vol. 87) using the “split synthesis approach,” where “X” denotes any L-amino acid except for cysteine, arginine, and lysine, and “c” is D-cysteine. TenteGel was used as a solid support and standard Fmoc chemistry was used for the solid phase peptide synthesis reactions. (Stewart and Young 1984. Solid-Phase Peptide Synthesis. Pierce Chemical Co. Atherton, E. and R. C. Sheppard. 1989. Solid Phase Peptide Synthesis: A Practical Approach. Practical Approach Series.)
Extract Preparation and Biotinlation. Human plasma and serum were prepared by the collection of human blood into stoppered vacuum tubes in the presence of Na-heparin as an anti-coagulant for plasma and in the absence of Na-heparin for serum. Blood was allowed to clot in the tubes for 25 minutes after which the top layer of […] was collected. Na-heparin was added to the serum to equalize the amount of Na-heparin in plasma and serum after which both samples were centrifuged at 1000 rpm for 20 minutes in a Sorvall SS34 centrifuge rotor. After centrifugation, samples were aliquoted, dialyzed against PBS for four hours at 4° C., quantitated and stored frozen at −80° C. The concentrations of the plasma and serum protein extracts after dialysis were 66.5 and 57.8 mg/ml, respectively.
Plasma and serum were tagged using biotinylation where biotin was the label and streptavidin alkaline phosphatase conjugate was the label binder. Biotinylation was performed according to the manufacturer's instructions. About 0.2 mg of protein was incubated in PBS with a 20-fold molar excess of sulfo-NHS-LC-biotin for 30 minutes at 23° C. The reaction was quenched by the addition of Tris-HCl pH 7.9 to 100 mM. For calculations of molarity, the average molecular weight of the proteins in the plasma and serum solutions was assumed to be 50 kD.
Library Screening. Four experiments were conducted. On average, 250,000 “one-bead-one-compound” beads were screened in each experiment. All bead reactions were performed in 1.5 ml polypropylene disposable micro-columns with inside dimensions of 37 mm×6 mm. Unless otherwise noted, all bead reactions were incubated on a Lab quake bench top rotator (Barnstead/Thermolyne) for 1 hour at 23° C. Bead libraries were stored in PBS with 0.05% sodium-azide. All incubation buffers and components were thoroughly mixed before addition to the column containing the bead library. […]

Substance: cAHVWHc
- ligands identified on true positive beads (beads that bound molecules essentially unique to the plasma): identified

Substance: cFHNNHc
- ligands identified on true positive beads (beads that bound molecules essentially unique to the plasma): identified

Substance: cGIHYLc
- ligands identified on true positive beads (beads that bound molecules essentially unique to the plasma): identified

Substance: cHGHTIc
- ligands identified on true positive beads (beads that bound molecules essentially unique to the plasma): identified

Substance: cHTLHQc
- ligands identified on true positive beads (beads that bound molecules essentially unique to the plasma): identified

Substance: cHVHPWc
- ligands identified on true positive beads (beads that bound molecules essentially unique to the plasma): identified

Substance: cHYHVSc
- ligands identified on true positive beads (beads that bound molecules essentially unique to the plasma): identified

Substance: cHYQTGc
- ligands identified on true positive beads (beads that bound molecules essentially unique to the plasma): identified

Substance: cMHGHFc
- ligands identified on true positive beads (beads that bound molecules essentially unique to the plasma): identified

Substance: cNLTHIc
- ligands identified on true positive beads (beads that bound molecules essentially unique to the plasma): identified

Substance: cPFHHSc
- ligands identified on true positive beads (beads that bound molecules essentially unique to the plasma): identified

Substance: cYGHFSc
- ligands identified on true positive beads (beads that bound molecules essentially unique to the plasma): identified

From patent US7291456B2, “Method for determining differences in molecular interactions and for screening a combinatorial library” (The Regents of the University of California, priority 2002, dated 2007)
